From PMC12112476, “Mass Spectrometric ITEM-FOUR Analysis Reveals Coding Single-Nucleotide Polymorphisms in Human Cardiac Troponin T That Evade Detection by Sandwich ELISAs Which Use Monoclonal Antibodies M7 and M11.7 from the Elecsys Troponin T® Assay” (International Journal of Molecular Sciences, 2025)

System: monoclonal anti-hcTnT antibody M11.7
Assay: ITEM-FOUR nano-ESI mass spectrometry: in-solution immune complex formation and gas-phase dissociation of M11.7 antibody–epitope peptide complexes
Assay type: binding
Details: for dx (V): Boltzmann curve parameter; for dx (V) / ΔCV50 (V) / Slope (%/V) / Δ (% pts) / in-solution immune complex formation with M11.7 (binding in words): peptide:antibody 13:1; for dx (V) / ΔCV50 (V) / Final (%) / Initial (%) / Slope (%/V): averaged from two acquisitions; for Binding Type: class by difference of normalized product ion intensities over ΔCV; for ΔCV50 (V): collision cell voltage difference for 50% dissociation, Boltzmann fit; for Final (%): normalized product ion quantity at highest applied ΔCV, peptide:antibody 13:1, 200 mM ammonium acetate pH 6.7; for Initial (%): normalized product ion quantity at lowest applied ΔCV, peptide:antibody 13:1, 200 mM ammonium acetate pH 6.7, at least 1 h RT, nano-ESI, ΔCV 0-58 V; for Slope (%/V): slope of Boltzmann curve; for Δ (% pts): difference Final minus Initial normalized product ion intensity; for in-solution immune complex formation with M11.7 (binding in words): nano-ESI-MS, 200 mM ammonium acetate pH 6.7; for KD m0g# [Ø]: apparent gas-phase dissociation constant, dimensionless number, extrapolated to ambient temperature; for ΔGm0g# / Tamb ΔSm0g# / ΔHm0g#: pseudo thermodynamic value of gas-phase complex dissociation; for ΔGm0g#: Ellingham diagram read at Tamb; for Tamb ΔSm0g# / ΔHm0g#: extrapolated to Tamb
Experimental: Immune complex-containing solutions of a wild-type epitope peptide and its corresponding antibody, e.g., P11 and M7, were prepared by mixing the two components in 200 mM ammonium acetate buffer (pH 6.7), ensuring a molar excess of the epitope peptide over the antibody to achieve binding saturation. After an incubation period of one hour, the entire mixture (~3 µL) was loaded into a nano-ESI emitter and electrosprayed. The mass spectrometer was configured to transmit only ion signals with m/z values above 3850, effectively eliminating signals from the unbound peptide (Figure 1A).
Antibody–peptide mixture solutions were prepared for ITEM FOUR experiments by mixing 5 µL of one antibody working solution with one assigned peptide working solution to generate antibody to peptide molar ratios of 1:2.1 for all solutions that contained the M7 antibody. For mixture solutions containing the M11.7 or the anti-TNFα antibody, 1:13 molar ratios were prepared. Antibodies were incubated together with peptides for at least one hour at room temperature prior to analysis.
Data acquisition for ITEM-FOUR experiments was performed as described in [18] with the Synapt G2S mass spectrometer (Waters MS-Technologies, Wilmslow, UK) and with the following instrumental settings: source temperature, 40 °C; capillary voltage, 1.0–1.3 kV; sample cone voltage, 130 V; source offset voltage, 130 V; trap gas flow (argon), 8.0 mL/min; helium gas: 20 bar. All mass spectra were acquired in positive-ion mode applying a mass window of m/z 200–8000. The quadrupole analyzer was used to block transmission of lower-molecular-mass ions: M1 = 5000 with dwell time of 25% and ramp time of 25%; M2 = 5000 with dwell time of 25% and ramp time of 25%; M3 = 5000. ΔCV in the TRAP collision cell was increased stepwise as follows: 0, 2, 6, 10, 14, 18, 22, 26, 30, 34, 40, 46, 52 and 58 V. The ion mobility separation mode was not used. All acquired scans during a given collision cell voltage difference setting were integrated to obtain an averaged spectrum from which ion intensities were extracted for ITEM-FOUR calculations. Data were acquired and processed with MassLynx software version 4.1 (Waters MS-Technologies). For exact time stamps of all measurements, refer to Table S2 in the Supplement (see also the deposited raw data supplement in the PRIDE directory). All mass spectra for each ΔCV setting were smoothed using the Savitzky-Golay method. Spectra of antibody solutions and antibody–peptide mixture solutions were smoothed using 30 cycles with a 15-mass unit window at the high mass end and at the low mass end with 3 cycles and a 2-mass unit window. All measurements were recorded in duplicate. The mass spectrometric raw data have been deposited via the ProteomeXchange Consortium in the PRIDE partner repository with the dataset identifier PXD058812 [70].
The Origin Pro 2023b (64-bit, OriginLab Corporation, Northampton, MA, USA) software package with an automation script for processing multiple datasets was used to graphically plot the extracted intensities of the ion signals of all relevant molecular entities (the immune complex with two bound peptides, the immune complex with one bound peptide, free antibodies, and free peptides) against their corresponding charge state for each collision cell voltage difference (ΔCV). Subsequently, Gaussian curve fittings were performed separately for each molecular entity. […] Iterations were performed for R2 values to be at least 0.91. Apices of Gaussian curves provided the intensities and the average m/z values for each molecular species. Intensity values of individual molecular entities (educts and products) were summed and normalized. Normalized intensities of educts and products from duplicate measurements were averaged.
The number of atoms from rituximab was used because the amino acid sequences of neither the M7 nor the M11.7 antibody were disclosed. […]

in-solution immune complex formation with M11.7 (binding in words) | KD m0g# [Ø] | Sequence | dx (V) | Binding Type | ΔCV50 (V) | Final (%) | Initial (%) | Slope (%/V) | Δ (% pts) | ΔGm0g# | Tamb ΔSm0g# | ΔHm0g#
 |  | AEQQCIRNEREKERQ [Peptide P25] | 6.00 V | unorthodox (Differences in normalized product ion intensities were less than 15 percentage points, but greater than 5 percentage points) | 10.06 V | 93.33% | 80.75% | 0.52 %/V |  |  |  | 
 |  | AEQQHIRNEREKERQ [Peptide P27] | 7.60 V | unorthodox (Differences in normalized product ion intensities were less than 15 percentage points, but greater than 5 percentage points) | 14.04 V | 93.49% | 80.22% | 0.44 %/V |  |  |  | 
 |  | AEQQRIQNEREKERQ [Peptide P29] | 5.17 V | unorthodox (Differences in normalized product ion intensities were less than 15 percentage points, but greater than 5 percentage points) | 9.96 V | 93.92% | 84.39% | 0.46 %/V | 9.53 % pts |  |  | 
Loss of binding |  | AEQQRIRNEQEKERQ [Peptide P31] |  | non-binding (The differences in normalized product intensity values were less than 5 percentage points) |  | 93.39% | 93.60% |  |  |  |  | 
 | 1.43 Ø | AEQQRIRNERKKERQ [Peptide P32] | 7.32 V | orthodox (The differences in normalized product ion intensity values were always greater than 15 percentage points) | 17.63 V | 96.03% | 69.09% | 0.92 %/V |  | -0.21 kcal/mol | 12.24 kcal/mol | 12.03 kcal/mol
Loss of binding |  | AEQQRIRNEWEKERQ [Peptide P30] |  | non-binding (The differences in normalized product intensity values were less than 5 percentage points) |  | 94.03% | 90.48% |  |  |  |  | 
 |  | AEQQRIWNEREKERQ [Peptide P28] | 6.90 V | unorthodox (Differences in normalized product ion intensities were less than 15 percentage points, but greater than 5 percentage points) | 13.80 V | 93.90% | 86.91% | 0.25 %/V | 6.99 % pts |  |  | 
 |  | AEQQSIRNEREKERQ [Peptide P26] | 6.49 V | unorthodox (Differences in normalized product ion intensities were less than 15 percentage points, but greater than 5 percentage points) | 26.67 V | 86.48% | 80.48% | 0.25 %/V | 6.00 % pts |  |  | 
Loss of binding |  | AEQRRIRNEREKERQ [Peptide P24] |  | non-binding (The differences in normalized product intensity values were less than 5 percentage points) |  | 93.57% | 90.25% |  |  |  |  | 
 | 1.18 Ø | AKQQRIRNEREKERQ [Peptide P23] | 7.29 V | orthodox (The differences in normalized product ion intensity values were always greater than 15 percentage points) | 22.47 V | 89.77% | 67.00% | 0.78 %/V |  | -0.1 kcal/mol | 9.037 kcal/mol | 8.941 kcal/mol
 |  | AQQQRIRNEREKERQ [Peptide P22] | 7.70 V | unorthodox (Differences in normalized product ion intensities were less than 15 percentage points, but greater than 5 percentage points) | 25.18 V | 97.12% | 87.08% | 0.33 %/V |  |  |  | 
